Read-outs that look alike come from different tables or passages of the source.
Columns and labels:
[1] = in vivo; conditions: male, Sprague-Dawley, rat; for AUC(0-inf): AUC0-inf; for AUC(0-t): AUC0-t; for k el: Kel; for half-life: t1/2
[2] = molecular target: T1, CYP3A4 (Homo sapiens, UniProt P08684); experiment: HLM-LC-MS CYP450 inhibition assay, CYP3A4; assay type: in vitro ADME
T1 construct: from tissue; host or cells: human liver microsomes
Procedure: (§4) A sigmoid-shaped curve (Log(inhibitor) vs. Response-Variable slope) was fitted to the data and the IC50 was calculated using GraphPad Prism software.
(§5) This assay used a cocktail of drug-probe substrates that are specific to each isozyme with HLM and LC-MS detection[33][34]. Each test article and reference inhibitor was dissolved in 40% DMSO and 60% acetonitrile (ACN) mixture. […] Substrates were then added to their respective well containing the compound/HLM solution to start the reaction. […] The solution was centrifuged at 4 °C for 30 min at 3,700 rpm and the supernatant was transferred for LC-MS analysis. The concentrations of the metabolites were determined from standard curves using commercially available metabolite standards. Compounds were tested in triplicate. The half maximal inhibitory concentration (IC50) values were determined by plotting the metabolite formation over the logarithm of the compound concentration using Prism 5.0 software (GraphPad Software Inc., San Diego, CA).

[3] = Determination of maximum tolerated dose (MTD) in rats; assay type: in vivo; conditions: Sprague-Dawley, in vivo, read-out: tolerated dosage (MTD study)
Procedure: (§1) The MTD determination assay was composed of sighting study and main study. For the sighting study of the determination maximum tolerable dose (MTD) of NSC23925b, one of each animal (one female rat, one male rat, one female mouse, and one male mouse) was used at each I.V. and I.P. injection dose level. The starting dose was selected from the fixed dose levels (5, 50, 500, 2000 mg/kg) as a dose expected to produce evident toxicity. The first animal was dosed and observed. Time of appearance, degree, and lasting/recovery time of signs were recorded in details. Afterwards, animals were observed twice on the dosing day and then changed to daily observation. The observation lasted at least 14 days. If the first animal died or appeared impaired, the second animal received a middle dose of the two doses and vice versa. The sighting study was completed when a decision on the starting dose for the main study was made.
(§2) During the main study, a total of five animals of one sex were used for each dose level investigated. The five animals were made up of one animal from the sighting study dosed at the selected dose level together with an additional four animals. Each group received one of the fixed doses by I.V. and I.P. based on the sighting study. If the first animal died or appeared impaired, the second animal received a middle dose of the two doses and vice versa.
(§3) Animals were fasted overnight prior to dosing. Following the period of fasting, the animals were weighed and the dose was calculated according to the body weight. After the animals were administrated a dose volume of 10 mL/kg, food was withheld for another 3–4 hours. Individual weights of animals were determined shortly before the test substance was administered and twice weekly thereafter. Weight changes were calculated and recorded. Animals injected with saline were the control group for the weight alteration.

[4] = test system: SD rats; experiment: as above; assay type: in vivo; conditions: SD rats, 5 exposed
Procedure: as §1, §2, §3

[5] = molecular target: CYP2D6 (Homo sapiens, UniProt P10635); experiment: HLM-LC-MS CYP450 inhibition assay, CYP2D6
Sequence of CYP2D6 (P10635 whole entry): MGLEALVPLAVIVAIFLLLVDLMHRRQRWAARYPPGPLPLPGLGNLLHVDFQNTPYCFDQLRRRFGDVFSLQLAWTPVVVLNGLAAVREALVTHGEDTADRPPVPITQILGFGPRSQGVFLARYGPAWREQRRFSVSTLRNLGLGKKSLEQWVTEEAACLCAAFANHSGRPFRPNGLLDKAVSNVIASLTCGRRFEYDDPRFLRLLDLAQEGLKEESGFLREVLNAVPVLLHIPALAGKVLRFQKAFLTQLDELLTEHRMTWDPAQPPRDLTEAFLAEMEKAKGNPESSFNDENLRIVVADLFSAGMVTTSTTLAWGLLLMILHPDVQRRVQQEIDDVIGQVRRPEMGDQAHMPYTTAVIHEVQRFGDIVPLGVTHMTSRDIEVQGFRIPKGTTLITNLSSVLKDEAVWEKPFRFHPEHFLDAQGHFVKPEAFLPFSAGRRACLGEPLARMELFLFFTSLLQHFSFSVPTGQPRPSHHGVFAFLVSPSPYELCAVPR
Procedure: as §4, §5

[6] = in vivo; conditions: mouse, in vivo; for AUC(0-inf): AUC0-inf; for AUC(0-t): AUC0-t; for k el: Kel; for half-life: t1/2
Procedure: After dosing, blood samples were collected at different time points for each group. […] Three animals were used for each time point. Approximately 800 μL of blood was collected via orbital vein (a source of collecting sufficient volume of venous blood) from each anesthetized mouse by isoflurane, and 200 μL of blood was collected from the cannula implanted in the jugular vein. The catheter was implanted when the blood sample was collected at the first time point. Next, the blood was transferred to a prepared tube containing sodium heparin anticoagulant and mixed briefly by gentle inversion three to four times. The target and actual time of blood sampling were recorded relative to the time of dosing. Samples were placed on wet ice immediately after collection. Within 1 hour after collection, plasma was separated by centrifugation at 4,000 rpm for 10 minutes at 4 °C. The plasma was protected from light and stored at −80 °C until analyzed by liquid chromatography-mass spectrometry/mass spectrometry (LC-MS/MS) for quantification.
Using the data from the standards, calibration curves were generated for each analytical batch. Aliquots of 10.0 μL of samples, calibraton curve samples, and QC samples were supplemented with 100 μL of precipitant (a mixture of acetone and acetonitrile (30:70)). After vortexing for 3 min and centrifuging at 12,000 rpm for 3 min, 75.00 μL of the supernatant was transferred into a 96-well microplate with an equal volume of water. The 10 μL mixture solution was injected for LC-MS/MS analysis.
Data collection was performed using Analyst version 1.4 from Applied Biosystems. […] The data were also analyzed using Prism 5.0 software. Statistical significance was determined using independent two-tailed Student t-tests and one-way ANOVA for independent data. Differences of P < 0.05 were regarded as significant for all statistical analyses.

[7] = molecular target: T2, CYP2C8 (Homo sapiens, UniProt P10632); experiment: HLM-LC-MS CYP450 inhibition assay, CYP2C8; assay type: in vitro ADME
T2 construct: from tissue; host or cells: human liver microsomes
T2 sequence (P10632 1-490): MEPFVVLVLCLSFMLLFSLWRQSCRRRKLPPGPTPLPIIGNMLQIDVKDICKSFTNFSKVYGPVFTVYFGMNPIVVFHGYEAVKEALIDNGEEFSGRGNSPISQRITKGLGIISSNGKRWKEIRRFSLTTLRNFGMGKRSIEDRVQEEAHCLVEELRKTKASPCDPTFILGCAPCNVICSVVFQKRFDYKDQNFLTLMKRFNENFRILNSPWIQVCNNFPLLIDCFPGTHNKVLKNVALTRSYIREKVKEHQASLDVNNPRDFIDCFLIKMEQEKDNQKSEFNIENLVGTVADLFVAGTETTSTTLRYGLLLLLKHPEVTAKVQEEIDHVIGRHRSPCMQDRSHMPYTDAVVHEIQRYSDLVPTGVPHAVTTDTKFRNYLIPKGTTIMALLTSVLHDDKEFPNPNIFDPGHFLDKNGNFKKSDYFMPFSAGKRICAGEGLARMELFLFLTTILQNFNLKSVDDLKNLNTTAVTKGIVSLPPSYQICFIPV
Procedure: as §4, §5

T1 sequence (P08684 whole entry): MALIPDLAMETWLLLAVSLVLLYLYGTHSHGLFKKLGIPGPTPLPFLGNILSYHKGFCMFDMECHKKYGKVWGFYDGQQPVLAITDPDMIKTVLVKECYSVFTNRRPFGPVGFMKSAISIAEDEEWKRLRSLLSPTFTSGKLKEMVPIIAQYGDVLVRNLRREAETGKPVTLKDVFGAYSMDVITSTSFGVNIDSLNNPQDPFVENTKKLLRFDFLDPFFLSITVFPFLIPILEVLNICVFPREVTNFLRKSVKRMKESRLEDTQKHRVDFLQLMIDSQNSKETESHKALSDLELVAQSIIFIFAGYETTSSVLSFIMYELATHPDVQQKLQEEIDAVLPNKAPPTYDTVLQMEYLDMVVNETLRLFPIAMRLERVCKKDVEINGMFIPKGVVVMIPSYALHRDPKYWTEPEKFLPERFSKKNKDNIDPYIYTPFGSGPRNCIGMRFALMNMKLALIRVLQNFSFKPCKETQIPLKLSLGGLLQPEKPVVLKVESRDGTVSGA

## COc1ccc(-c2cc(C(O)C3CCCCN3)c3ccccc3n2)cc1 (centres unmarked) [NSC23925b, (2-(4-methoxyphenyl)-4-quinolinyl)(2-piperidinyl)methanol]
[1]; ip, 5 mg/kg
  Cmax: 128 ± 44.3 ng/mL
  AUC(0-inf): 1990 ± 855 ng·h/mL
  AUC(0-t): 1390 ± 173 ng·h/mL
  k el: 2.29e-05 s⁻¹
  half-life: 9.24 ± 3.77 h
[1]; ip, 5 mg/kg, tmax
  Tmax: ~2.17 h
[1]; iv, 2.5 mg/kg
  AUC(0-inf): 902 ± 57.4 ng·h/mL
  AUC(0-t): 766 ± 51.9 ng·h/mL
  k el: 2.18e-05 s⁻¹
  half-life: 8.86 ± 0.541 h
[1]; iv, 2.5 mg/kg, CL
  clearance: 46.3 ± 3.06 mL/min/kg
[1]; iv, 2.5 mg/kg, VdSS
  Vd: 32.4 ± 3.06 L/kg
[2]
  CYP inhibitor class: weak (IC50 values of >10 μM)
[2]; substrate midazolam 5 μM, 1-hydroxylation, read-out: Compound IC50
  IC50: > 10 µM
[2]; substrate not specified, read-out: IC50
  IC50: > 10 µM
[2]; substrate testosterone 80 μM, 6ß-hydroxylation, read-out: Compound IC50
  IC50: > 10 µM
[3]; iv, female rats, I.V., one female rat moribund
  MTD: 47.2 mg/kg
[3]; rat, ip, male rats, I.P., all in good status
  MTD: 33.1 mg/kg
[3]; rat, iv, male rats, I.V.
  MTD: 38.8 mg/kg
[4]; I.P., 33.10 mg/kg, male
  Number of Death: 0
[4]; I.P., 47.20 mg/kg, female
  Number of Death: 1
[4]; I.V., 38.80 mg/kg, male
  Number of Death: 0
[4]; I.V., 47.20 mg/kg, female
  Number of Death: 1
[5]; Compound IC50, HLM, substrate bufuralol 10 μM
  IC50: 1.41 µM
[5]; HLM, bufuralol
  CYP inhibitor class: moderate (1–10 μM)
[6]; male, BALB/c (mice), Sprague-Dawley (rats)
  volumes of distribution at a steady state: > 9 L/kg
[6]; male, BALB/c (mice), Sprague-Dawley (rats), ip, 5 mg/kg
  time of highest concentrations in plasma after I.P. injection: 1 to 2 h
[6]; male, BALB/c (mice), Sprague-Dawley (rats), iv, 2.5 mg/kg
  time of highest concentrations in plasma after I.V. injection: 5 min
[6]; male, BALB/c
  time point of peak plasma NSC23925b concentrations for both I.V. and I.P.: 15 min
[6]; male, BALB/c, ip, 5 mg/kg
  AUMC0-inf: 50744 ± 36083 h·h·ng·mL^−1
  AUMC0-t: 25329 ± 4810 h·h·ng·mL^−1
  Cmax: 298 ± 56.1 ng/mL
  F: 117.1 ± 24.06%
  AUC(0-inf): 3980 ± 819 ng·h/mL
  AUC(0-t): 3360 ± 197 ng·h/mL
  k el: 2.56e-05 s⁻¹
  half-life: 8.69 ± 4.18 h
[6]; male, BALB/c, ip, 5 mg/kg, tmax
  Tmax: ~1.5 h
[6]; male, BALB/c, iv, 2.5 mg/kg
  AUMC0-inf: 11945 ± 2141 h·h·ng·mL^−1
  AUMC0-t: 9893 ± 1299 h·h·ng·mL^−1
  MRTIV: 6.99 ± 0.836 h
  AUC(0-inf): 1700 ± 130 ng·h/mL
  AUC(0-t): 1640 ± 114 ng·h/mL
  k el: 3.89e-05 s⁻¹
  half-life: 5.01 ± 0.661 h
[6]; male, BALB/c, iv, 2.5 mg/kg, CL
  clearance: 24.6 ± 1.96 mL/min/kg
[6]; male, BALB/c, iv, 2.5 mg/kg, VdSS
  Vd: 10.3 ± 0.808 L/kg
[6]
  treatment-related clinical signs during the pharmacokinetic study: no treatment-related clinical signs were observed
[7]
  CYP inhibitor class: weak (IC50 values of >10 μM)
[7]; substrate paclitaxel 10 μM, 6α-hydroxylation, read-out: Compound IC50
  IC50: > 10 µM

From PMC4860631, “Pharmacokinetics and tolerability of NSC23925b, a novel P-glycoprotein inhibitor: preclinical study in mice and rats” (Scientific Reports, 2016)
